Experimental data as given in patent US20040086999A1, “Mutated-pf-4, its fragments and mutated fusion peptides, their analogues, corresponding dna, cdna and mrna sequences and their use for inhibiting angiognesis” (priority 2000, published 2004).

Legend:
[1] = system: FGF-2 high-affinity receptors; assay: Inhibition of binding of 125I-FGF-2 to high-affinity receptors on endothelial cells; conditions: 125I-FGF-2 10 ng/ml, 2 h at 4° C., read-out: I50, inhibition of the binding of FGF-2 to the high-affinity receptors
Procedure: (§1) The inhibition of the binding of FGF-2 to high-affinity receptors (Table 1) is measured in the following manner. FGF-2 is radiolabeled with ^125I-Na, and 10 ng/ml are incubated with endothelial cells for 2 h at 4° C. The radioactivity bound to high-affinity receptors is then determined. The specific binding is estimated by subtracting the nonspecific binding from the total binding (in the presence of a 100-fold excess of cold ligand relative to the hot ligand). The I50 is the concentration which inhibits specific binding by 50%.
(§2) A more detailed description of these measurements of I50 may be found in Jouan et al. and in Perollet et al. cited above.

[2] = system: VEGF receptors; assay: Inhibition of binding of 125I-VEGF to surface receptors on endothelial cells; conditions: 125I-VEGF 10 ng/ml, 2 h at 4° C., read-out: I50, inhibition of the binding of VEGF to the high-affinity receptors
Procedure: The inhibition of the binding of VEGF to the surface receptors (Table 1) is measured in the following manner. VEGF is radiolabeled with ^125I-Na, and 10 ng/ml are incubated with endothelial cells for 2 h at 4° C. The radioactivity bound to the receptors is then determined. The specific binding is estimated by subtracting the nonspecific binding from the total binding (in the presence of a 100-fold excess of cold ligand relative to the hot ligand). The I50 is the concentration which inhibits specific binding by 50%.
as §2

[3] = system: proteoglycans; assay: Inhibition of binding of 125I-FGF-2 to proteoglycans on endothelial cells; conditions: 125I-FGF-2 10 ng/ml, 2 h at 4° C., read-out: I50, inhibition of the binding of FGF-2 to proteoglycans
Procedure: as §1, with “to the proteoglycans” for “to high-affinity receptors”, “(Table 2)” for “(Table 1)”, “cold […]” for “cold ligand”
as §2

[4] = system: proliferation induced by FGF-2; assay: Inhibition of the biological activity of FGF-2 (FGF-2-induced cell proliferation, cell count); format: cell-based; conditions: 20 000 cells, 10 ng/ml FGF-2, DMEM 1% FCS, counted on day 6; read-out: I50, inhibition of cell proliferation
Procedure: The inhibition of the biological activity of FGF-2 (Table 3) is measured in the following manner: 20 000 cells are incubated with 10 ng/ml of FGF-2 in DMEM medium containing 1% fetal calf serum (FCS) in dishes 3.5 cm in diameter in the presence or in the absence of peptide. The cells are counted on the 6 day using a Coulter counter. The experiments are carried out in duplicate. The I50 is the concentration which inhibits the proliferation induced by FGF-2 by 50%.
as §2

[5] = system: angiogenesis; assay: Inhibitory activity tests of the fusion peptide (method not described); conditions: test not specified

Row | IC50 [1] [nM] | IC50 [2] [nM] | IC50 [3] [nM] | Substance | IC50 [4] [nM] | Inhibitory activity compared with native PF-4 or fragment 47-70 [5]
1 | 1500 | 1500 | 3500 | Peptide 47-70 DLQ: nonmutated PF-4 fragment 47-70, control peptide used as comparative example (NGRKICLDLQAPLYKKIIKKLLES; Platelet factor 4; UniProt P02776 78-101, looked up, fragment) [reference compound] | 2800 | –
2 | 300 | 300 | 600 | Peptide 47-70 DLR: PF-4 fragment 47-70 with glutamine in position 56 replaced by arginine (SEQ. ID. No:3) (NGRKICLDLRAPLYKKIIKKLLES; SEQ ID NO. 3 is the 47-70 fragment of mutated PF-4 SEQ ID. NO. 2) | 400 | –
3 | – | – | – | fusion peptide 17-34/47-70: fusion peptide 17-34/47-70 derived from PF-4; the mutated form is SEQ. ID. No:4 (SQVRPRHITSLEVIKAGPNGRKICLDLRAPLYKKIIKKLLES; SEQ ID NO. 4 is the 17-34/47-70 fragment of mutated PF-4 SEQ. ID NO. 2.) [fusion peptide 17-34/47-70 derived from PF-4; ID; No:4] | – | inhibitory activity greater than that of native PF-4 or of fragment 47-70
